Test results from PubChem BioAssay (NCI).
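Briefly, cells in 96-well plates were exposed to five compound concentrations for 48 h, and endpoints were estimated by linear interpolation. Here, GI50 denotes the concentration required for 50% inhibition of growth. TGI marks complete inhibition of growth.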

Columns and labels:
Assay in all cases: NCI-60 cell line screen, 48 h
SK-MEL-2 melanoma = tested on: SK-MEL-2 melanoma
MALME-3M melanoma = tested on: MALME-3M melanoma
KM12 colon = tested on: KM12 colon
ACHN renal = tested on: ACHN renal
SW-620 colon = tested on: SW-620 colon
SK-MEL-28 melanoma = tested on: SK-MEL-28 melanoma
OVCAR-8 ovarian = tested on: OVCAR-8 ovarian
SK-OV-3 ovarian = tested on: SK-OV-3 ovarian
NCI-H460 lung = tested on: NCI-H460 lung
SNB-19 CNS = tested on: SNB-19 CNS
MOLT-4 leukemia = tested on: MOLT-4 leukemia
TK-10 renal = tested on: TK-10 renal
A498 renal = tested on: A498 renal
IGROV1 ovarian = tested on: IGROV1 ovarian
M14 melanoma = tested on: M14 melanoma
RPMI-8226 leukemia = tested on: RPMI-8226 leukemia
SF-295 CNS = tested on: SF-295 CNS
NCI-H23 lung = tested on: NCI-H23 lung
HT29 colon = tested on: HT29 colon
SK-MEL-5 melanoma = tested on: SK-MEL-5 melanoma
MDA-MB-435 = tested on: MDA-MB-435
SF-539 CNS = tested on: SF-539 CNS
A549 NSCLC = tested on: A549 NSCLC
NCI-H522 lung = tested on: NCI-H522 lung
T-47D breast = tested on: T-47D breast
786-0 renal = tested on: 786-0 renal
U251 CNS = tested on: U251 CNS
UACC-257 melanoma = tested on: UACC-257 melanoma
CAKI-1 renal = tested on: CAKI-1 renal
OVCAR-5 ovarian = tested on: OVCAR-5 ovarian
NCI/ADR-RES ovarian = tested on: NCI/ADR-RES ovarian
SN12C renal = tested on: SN12C renal
HL-60(TB) leukemia = tested on: HL-60(TB) leukemia
OVCAR-4 ovarian = tested on: OVCAR-4 ovarian
LOX IMVI melanoma = tested on: LOX IMVI melanoma
HCT-15 colon = tested on: HCT-15 colon
SR leukemia = tested on: SR leukemia
MDA-MB-231 breast = tested on: MDA-MB-231 breast
PC-3 prostate = tested on: PC-3 prostate
HOP-62 NSCLC = tested on: HOP-62 NSCLC
UO-31 renal = tested on: UO-31 renal
SNB-75 CNS = tested on: SNB-75 CNS
K-562 leukemia = tested on: K-562 leukemia
SF-268 CNS = tested on: SF-268 CNS
HCC-2998 colon = tested on: HCC-2998 colon
MCF7 breast = tested on: MCF7 breast
NCI-H226 lung = tested on: NCI-H226 lung
HCT-116 colon = tested on: HCT-116 colon
HOP-92 NSCLC = tested on: HOP-92 NSCLC
RXF 393 renal = tested on: RXF 393 renal
DU-145 prostate = tested on: DU-145 prostate
COLO 205 colon = tested on: COLO 205 colon
BT-549 breast = tested on: BT-549 breast
UACC-62 melanoma = tested on: UACC-62 melanoma
OVCAR-3 ovarian = tested on: OVCAR-3 ovarian

O=C(Nc1nc2c(s1)CCc1c-2c(Br)n(Cc2ccccc2)c1Br)c1ccccc1
GI50 (SK-MEL-2 melanoma): 3.47 µM | TGI (SK-MEL-2 melanoma): 19.6 µM | GI50 (MALME-3M melanoma): 2.57 µM | TGI (MALME-3M melanoma): 10.2 µM | GI50 (KM12 colon): 6.19 µM | TGI (KM12 colon): > 100 µM | GI50 (ACHN renal): 1.88 µM | TGI (ACHN renal): 7.35 µM | GI50 (SW-620 colon): 21.4 µM | TGI (SW-620 colon): > 100 µM | GI50 (SK-MEL-28 melanoma): 4.34 µM | TGI (SK-MEL-28 melanoma): 70.7 µM | GI50 (OVCAR-8 ovarian): 3.91 µM | TGI (OVCAR-8 ovarian): > 100 µM | GI50 (SK-OV-3 ovarian): 3.23 µM | TGI (SK-OV-3 ovarian): 16.3 µM | GI50 (NCI-H460 lung): 3.82 µM | TGI (NCI-H460 lung): > 100 µM | GI50 (SNB-19 CNS): 7.41 µM | TGI (SNB-19 CNS): > 100 µM | GI50 (MOLT-4 leukemia): 22.7 µM | TGI (MOLT-4 leukemia): 64.4 µM | GI50 (TK-10 renal): 2.98 µM | TGI (TK-10 renal): 7.85 µM | GI50 (A498 renal): 4.7 µM | TGI (A498 renal): 28.9 µM | GI50 (IGROV1 ovarian): 2.68 µM | TGI (IGROV1 ovarian): 33.4 µM | GI50 (M14 melanoma): 9.94 µM | TGI (M14 melanoma): > 100 µM | GI50 (RPMI-8226 leukemia): 11.4 µM | TGI (RPMI-8226 leukemia): > 100 µM | GI50 (SF-295 CNS): 3.01 µM | TGI (SF-295 CNS): 13.2 µM | GI50 (NCI-H23 lung): 8.03 µM | TGI (NCI-H23 lung): > 100 µM | GI50 (HT29 colon): 4.71 µM | TGI (HT29 colon): > 100 µM | GI50 (SK-MEL-5 melanoma): 2.17 µM | TGI (SK-MEL-5 melanoma): 11.6 µM | GI50 (MDA-MB-435): 2.97 µM | TGI (MDA-MB-435): 35.9 µM | GI50 (SF-539 CNS): 1.55 µM | TGI (SF-539 CNS): 3.38 µM | GI50 (A549 NSCLC): 3.12 µM | TGI (A549 NSCLC): 23.1 µM | GI50 (NCI-H522 lung): 4.41 µM | TGI (NCI-H522 lung): 32.5 µM | GI50 (T-47D breast): 1.4 µM | TGI (T-47D breast): 19.7 µM | GI50 (786-0 renal): 2.73 µM | TGI (786-0 renal): 11.9 µM | GI50 (U251 CNS): 3.42 µM | TGI (U251 CNS): 11.3 µM | GI50 (UACC-257 melanoma): 8.53 µM | TGI (UACC-257 melanoma): > 100 µM | GI50 (CAKI-1 renal): 9.89 µM | TGI (CAKI-1 renal): > 100 µM | GI50 (OVCAR-5 ovarian): 47.3 µM | TGI (OVCAR-5 ovarian): > 100 µM | GI50 (NCI/ADR-RES ovarian): 21 µM | TGI (NCI/ADR-RES ovarian): > 100 µM | GI50 (SN12C renal): 10 µM | TGI (SN12C renal): > 100 µM | GI50 (HL-60(TB) leukemia): 45.3 µM | TGI (HL-60(TB) leukemia): > 100 µM | GI50 (OVCAR-4 ovarian): 1.8 µM | TGI (OVCAR-4 ovarian): 7.54 µM | GI50 (LOX IMVI melanoma): 5.53 µM | TGI (LOX IMVI melanoma): > 100 µM | GI50 (HCT-15 colon): 12.4 µM | TGI (HCT-15 colon): > 100 µM | GI50 (SR leukemia): 12.1 µM | TGI (SR leukemia): > 100 µM | GI50 (MDA-MB-231 breast): 2.16 µM | TGI (MDA-MB-231 breast): 32.6 µM | GI50 (PC-3 prostate): 4.26 µM | TGI (PC-3 prostate): > 100 µM | GI50 (HOP-62 NSCLC): 2.13 µM | TGI (HOP-62 NSCLC): 6.72 µM | GI50 (UO-31 renal): 3.19 µM | TGI (UO-31 renal): 39.9 µM | GI50 (SNB-75 CNS): 1.77 µM | TGI (SNB-75 CNS): 4.74 µM | GI50 (K-562 leukemia): 22.9 µM | TGI (K-562 leukemia): > 100 µM | GI50 (SF-268 CNS): 6.03 µM | TGI (SF-268 CNS): > 100 µM | GI50 (HCC-2998 colon): > 100 µM | TGI (HCC-2998 colon): > 100 µM | GI50 (MCF7 breast): 5.38 µM | TGI (MCF7 breast): > 100 µM | GI50 (NCI-H226 lung): 1.87 µM | TGI (NCI-H226 lung): 9.16 µM | GI50 (HCT-116 colon): 3.98 µM | TGI (HCT-116 colon): > 100 µM | GI50 (HOP-92 NSCLC): 1.2 µM | TGI (HOP-92 NSCLC): 4.63 µM | GI50 (RXF 393 renal): 2.01 µM | TGI (RXF 393 renal): 7.69 µM | GI50 (DU-145 prostate): 5.19 µM | TGI (DU-145 prostate): > 100 µM | GI50 (COLO 205 colon): 8.05 µM | TGI (COLO 205 colon): > 100 µM | GI50 (BT-549 breast): 2.53 µM | TGI (BT-549 breast): 8.01 µM | GI50 (UACC-62 melanoma): 4.66 µM | TGI (UACC-62 melanoma): > 100 µM | GI50 (OVCAR-3 ovarian): 4.24 µM | TGI (OVCAR-3 ovarian): 17.3 µM
